Results reported in patent publication US12521425B2, “Method of liver cancer treatment with safranal-based formulations” (priority 2019, dated 2026).

Tests used:
[1] = system: DEN-induced hepatic neoplasia; test: Liver gross and histopathological examination in DEN-induced HCC model; assay type: in vivo, male Wistar rats; conditions: HCC rats
Method: A modified version of the protocol described by DePeralta et al. (2016) and Schiffer et al. (2005) was used here to establish the hepatocarcinogenesis model.
On the first 15 weeks, the control PBS group was treated with 1×PBS, whereas the experimental groups were given an intraperitoneal injection (IP) of 50 mg/kg of diethylnitrosoamine (DEN, Sigma Aldrich), a widely used chemical for inducing cancer, once a week. DEN was diluted with 1×PBS. Following a one-week break (week 16), the next three weeks (weeks 17 to 19) of treatment commenced. All drugs were administrated by oral gavage. All doses were chosen according to literature (Alsaied et al., 2014; Karafakioglu et al., 2017). For the HCC+sorafenib group, the drug (Carbosynth Limited) was administered at a dose of 10 mg/kg, five days a week. For the HCC+safranal group, the drug (Sigma Aldrich) was administered at a dose of 200 mg/kg, five days a week. For the HCC+safranal+sorafenib group, the drugs were administered at a dose of 200 mg/kg safranal+10 mg/kg sorafenib, five days a week. Both safranal and sorafenib were diluted with 1×PBS and drops of Tween 80. […] After 24-hours from last treatment, the rats were euthanized by mild diethyl ether and dissected in equal conditions. Blood and whole liver were collected.
Liver sample specimens were fixed in 10% neutral buffered formalin, dehydrated in a series of graded ethanol, embedded in paraffin blocks, and cut into 3 μm-thick sections. To detect histopathological changes, sections were stained with hematoxylin and eosin (H&E), and reticulin stain kit according to the protocol provided (Abcam), then examined under light microscope (Ozkececi et al., 2016). Blinded examination of tissue samples was carried out by a pathologist from Tawam Hospital—United Arab Emirates.

HepG2 cells [2] = test: Colony formation assay; assay type: cell-based; conditions: HepG2, 30-100 μM for 24 hours
Method: Colony formation. HepG2 cell were seeded at a density of 1000 cells/6-well plate, and left to incubate for 24 hours to allow attachment before being treated with different concentrations of safranal (30, 50, 100 μM) for 24 hours. After which, culture media containing safranal was replaced by fresh growth media without safranal. Culture media was replenished every 3 days, until visible colonies were formed. Colonies were fixed with absolute methanol, then stained with 0.5% crystal violet. Colonies were then imaged and analyzed using ImageJ plugin ColonyArea. Results are represented as the percent of area occupied by colonies. To confirm, an absorption-based method was carried out to validate results obtained from ImageJ. Briefly, stained colonies were treated with 10% acetic acid solution to dissolve the crystal violet stain. After which, 100 μL of each triplicate sample was transferred to a 96-well plate (in triplicates), and absorbance was measured using an Epoch microplate spectrophotometer (BioTek). *p≤0.05, **p≤0.001, ***p≤0.0001

HepG2 cells [3] = test: MTT assay, cell viability; assay type: cell-based; conditions: HepG2, 50-900 μM for 24, 48 and 72 hours; read-out: IC50, inhibition of cellular viability
Method: MTT assay. HepG2 cells were seeded at a density of 5000 cells/well in 96-well plates in 100 μL of complete growth medium. Cells were allowed to attach before being treated with different concentrations of safranal (Sigma Aldrich) (50 μM, 100 μM, 500 μM, 700 μM and 900 μM) for 24, 48 and 72 hours. After which, the cells were treated with 3-[4,5-dimethylthiazol-2-yl]-2,5-diphenyltratrazolium bromide (MTT) (Sigma Aldrich) and incubated for 3 hours. The formed formazan crystals were dissolved using DMSO and the absorbance of the resulting product was measured at 570 nm using an Epoch microplate spectrophotometer (Bio-Tek). Cell viability is presented as percentile of the untreated control which was calculated accordingly: Percent of viable cells=(Abs. of treated cells/Abs. of control cells)×100. *p≤0.05, **p≤0.001, ***p≤0.0001.

HepG2 cells [4] = test: Cell morphology, crystal violet; assay type: cell-based; conditions: HepG2, increasing doses, 24 hours
Method: Cell morphology. HepG2 were seeded at a density of 0.25×10^6 cells/well in 6-well plate. After allowing the cell to attach, HepG2 cells were treated without or with different concentrations of safranal (30, 50, 100, 500, 700 μM) for 24 hrs. After which, cells were fixed and stained with crystal violet. The morphology of the cells was assessed after being fixed and stained with 0.5% crystal violet using IX53 microscope (Olympus).

HepG2 cells [5] = test: Western blotting of safranal-treated cells; assay type: cell-based
Method: Western blotting. HepG2 cells were seeded at a density of 1×10^6 cells/100 mm plate and allowed to attach before being treated with safranal. Cells were treated with 500 μM of safranal for different time intervals (6-48 hours) for time-dependent experiments. Whole cell lysates were separated using 10-15% SDS polyacrylamide gel electrophoresis. Proteins were transferred onto PVDF membranes prior to incubation with various primary antibodies p-histone H3, Cdc2, Cyclin B1, CDC25B, p21, p53, H2AX, p-H2AX, TOP1, TDP1, Cleaved PARP1, PCNA, HDAC1, HDAC2, Cleaved Caspase-9, Cleaved Caspase-8, Bax, Bcl-2, GRP78, ATF6, IRE1, PERK, p-eIF2S1, […], and CHOP. GAPDH, β-actin, and α-Tubulin were used as loading controls. Protein bands were detected using WesternSure Chemiluminescent Substrate (LI-COR) and C-DiGit blot scanner (LI-COR).

[6] = male rats, oral (Hosseinzadeh et al., 2013); cited from earlier work

CC1=C(C=O)C(C)(C)CC=C1 [safranal]
area of neoplastic foci (histology) ([1]; H&E, versus HCC): restoration of the normal architecture of the liver
number of liver nodules / lesions ([1]; comparing to HCC animals): reduced lesions
reticular fibers (reticulin staining) ([1]; comparing to HCC group): reduced reticular fibers' breakage and restored their morphology
colony formation (HepG2 cells [2]): inhibited colony formation of HepG2 cells in a dose-dependent manner
IC50 (HepG2 cells [3]): 500 µM
morphological changes (HepG2 cells [4]): morphological alterations including more rounded cell shapes, cell shrinkage, and increased detachment
HDAC1 expression (HepG2 cells [5]; HepG2, 500 μM): inhibited
HDAC2 expression (HepG2 cells [5]; HepG2, 500 μM): remained unchanged
Cdc2 expression (HepG2 cells [5]; HepG2, 500 μM, 6-48 hours): inhibit Cdc2 expression starting at 12 hours
H2AX expression (HepG2 cells [5]; HepG2, 500 μM, 6-48 hours): remained unchanged
expression of Cyclin B1 and CDC25B (HepG2 cells [5]; HepG2, 500 μM, 6-48 hours): inhibiting expression of Cyclin B1 and CDC25B starting at 6 hours
expression of phosphorylated histone H3 (HepG2 cells [5]; HepG2, 500 μM, 6-48 hours): inhibited dramatically
p-H2AX (DNA damage marker) (HepG2 cells [5]; HepG2, 500 μM, 6-48 hours): observed starting at 6 hours
proliferation marker PCNA (HepG2 cells [5]; HepG2, 500 μM, 6-48 hours): inhibition
CHOP/DDIT3 and phosphorylated eIF2α (HepG2 cells [5]; HepG2, 500 μM, up to 48 hours): upregulated
expression of p21 (HepG2 cells [5]; HepG2, 500 μM, up to 48 hours): inhibited
expressions of GRP78 and of p27 (HepG2 cells [5]; HepG2, 500 μM, up to 48 hours): induced
main sensors of UPR, PERK, MEL and ATF6 (HepG2 cells [5]; HepG2, 500 μM, up to 48 hours): general upregulation trend
TDP1 level (HepG2 cells [5]; HepG2, 6, 12, 24, 48 hours): lower levels
TOP1 level (HepG2 cells [5]; HepG2, 6, 12, 24, 48 hours): higher levels
caspase-8 cleavage (HepG2 cells [5]; HepG2, time-based): cleaved starting at 24 hours
caspase-9 cleavage (HepG2 cells [5]; HepG2, time-based): cleaved starting at 12 hours
ratio of Bax to Bcl-2 (HepG2 cells [5]; HepG2, time-based): increased
oral LD50 [6]: 5.53 mL/kg
